Values quoted from earlier work as cited in patent US20080044486A1, “Controlled Food Effect Composition” (priority 2003, published 2008).

How the values were obtained:
[1] = oral, conventional pharmaceutical composition

Row | SMILES | Food effect in a conventional composition (references) [1] | LogP
1 | O=C1C(O)=C([C@H]2CC[C@H](c3ccc(Cl)cc3)CC2)C(=O)c2ccccc21 [Atovaquone] | High-fat food gives increased | 4.9
2 | CCCCc1oc2ccccc2c1C(=O)c1cc(I)c(OCCN(CC)CC)c(I)c1 [Amiodarone] | Increased absorption (3) | –
3 | C#C[C@]1(O)CC[C@H]2[C@@H]3CCC4=Cc5oncc5C[C@]4(C)[C@H]3CC[C@@]21C [Danazol] | – | 4.3
4 | CCOC(=O)C1=C(C)NC(C)=C(C(=O)OC)C1c1cccc(Cl)c1Cl (stereo not shown) [Felodipine] | High-fat food gives increased | –
5 | CCOC(=O)/C=C(C)/C=C/C=C(C)/C=C/c1c(C)cc(OC)c(C)c1C [Etretinate] | – | 6.6
6 | CC(C)/N=c1\cc2n(-c3ccc(Cl)cc3)c3ccccc3nc-2cc1Nc1ccc(Cl)cc1 [Clofazimine] | Increased absorption (2, 4) | –
7 | CC(=O)Oc1ccccc1C(=O)O [Acetylsalicylic acid] | Delayed absorption and reduced | –
8 | CO[C@H]1O[C@@H]2O[C@@]3(C)CC[C@H]4[C@H](C)CC[C@@H]([C@H]1C)[C@@]24OO3 [Artemether] | High-fat food gives increased | 3.5
9 | COc1cc(C)c(/C=C/C(C)=C/C=C/C(C)=C/C(=O)O)c(C)c1C [Acitretin] | Increased absorption (2, 4) | 6.4
10 | CC1=C(/C=C/C(C)=C/C=C/C(C)=C/C(=O)Nc2ccc(O)cc2)C(C)(C)CCC1 [Fenretinide] | High-fat food gives increased | 6.1

The remaining lines, values ahead:

Row | Food effect in a conventional composition (references) [1] | LogP | SMILES
11 | Delayed absorption and reduced | – | CCCC(CCC)C(=O)O [Valproic acid]
12 | High-fat food gives increased | 8.9 | CCCCN(CCCC)CC(O)c1cc(Cl)cc2c1-c1ccc(Cl)cc1/C2=C/c1ccc(Cl)cc1 (stereo not shown) [Lumefantrine]
13 | – | 0.8 | NC(=O)c1cn(Cc2c(F)cccc2F)nn1 [Rufinamide]
14 | Increased absorption (7) | – | CC1=C(/C=C/C(C)=C/C=C/C(C)=C\C(=O)O)C(C)(C)CCC1 [Isotretinoin]
15 | Increased but delayed absorption | – | CCOC(=O)N1CCC(=C2c3ccc(Cl)cc3CCc3cccnc32)CC1 [Loratadine]
16 | – | 5.5 | O=C(c1ccc(OCCN2CCCCC2)cc1)c1c(-c2ccc(O)cc2)sc2cc(O)ccc12 [Raloxifene]
17 | High-fat food gives increased | 0.6 | CC(C)OC(=O)OCOP(=O)(CO[C@H](C)Cn1cnc2c(N)ncnc21)OCOC(=O)OC(C)C [Tenofovir disoproxil]
18 | Increased absorption (1, 4, 5) | – | CC(C)c1nc(CN(C)C(=O)N[C@H](C(=O)N[C@@H](Cc2ccccc2)C[C@H](O)[C@H](Cc2ccccc2)NC(=O)OCc2cncs2)C(C)C)cs1 [Ritonavir]
19 | – | 3.8 | CC(C)(C)NC(=O)[C@@H]1C[C@@H]2CCCC[C@@H]2CN1C[C@@H](O)[C@H](Cc1ccccc1)NC(=O)[C@H](CC(N)=O)NC(=O)c1ccc2ccccc2n1 [Saquinavir]
20 | Increased absorption (2) | 4.1 | COC(=O)C1=C(C)NC(C)=C(C(=O)OCCN2CCN(C(c3ccccc3)c3ccccc3)CC2)C1c1cccc([N+](=O)[O-])c1 (stereo not shown) [Manidipine]
21 | High-fat food gives increased | −1.9 | NC(=O)c1ncn([C@@H]2O[C@H](CO)[C@@H](O)[C@H]2O)n1 [Ribavirin]
22 | High-fat food gives increased | 5.3 | CO[C@H]1C[C@@H]2CC[C@@H](C)[C@@](O)(O2)C(=O)C(=O)N2CCCC[C@H]2C(=O)O[C@H]([C@H](C)C[C@@H]2CC[C@@H](O)[C@H](OC)C2)CC(=O)[C@H](C)/C=C(\C)[C@@H](O)[C@@H](OC)C(=O)[C@H](C)C[C@H](C)/C=C/C=C/C=C/1C [Sirolimus]
23 | Increased but delayed absorption | 5.7 | CCC(C)n1ncn(-c2ccc(N3CCN(c4ccc(OCC5COC(Cn6cncn6)(c6ccc(Cl)cc6Cl)O5)cc4)CC3)cc2)c1=O (stereo not shown) [Itraconazole]
24 | Increased absorption (6) | 1.7 | Cc1c(-c2cnccn2)ssc1=S [Oltipraz]
25 | Increased absorption and reduced | 2.8 | CC(=O)S[C@@H]1CC2=CC(=O)CC[C@]2(C)[C@H]2CC[C@@]3(C)[C@@H](CC[C@@]34CCC(=O)O4)[C@H]12 [Spironolactone]
